We go through two compounds from publication PMC4076210, “Discovery of Novel AKT Inhibitors with Enhanced Anti-Tumor Effects in Combination with the MEK Inhibitor” (PLoS ONE, 2014).

SMILES strings stand for the structures. Read-outs that look alike come from different tables or passages of the source.

The term inhibition denotes the drop in the measured response relative to a control, in per cent.

Holding throughout (assay): Kinase panel
Holding throughout (type): biochemical

One test has as its target T1, CDK5/p35(h) (Homo sapiens, UniProt Q00535).
T1 construct: purchased Millipore KinaseProfiler

The next test addresses T2, EphB1(h) (Homo sapiens, UniProt P54762).
T2 construct: purchased Millipore KinaseProfiler
T2 sequence (P54762 18-984): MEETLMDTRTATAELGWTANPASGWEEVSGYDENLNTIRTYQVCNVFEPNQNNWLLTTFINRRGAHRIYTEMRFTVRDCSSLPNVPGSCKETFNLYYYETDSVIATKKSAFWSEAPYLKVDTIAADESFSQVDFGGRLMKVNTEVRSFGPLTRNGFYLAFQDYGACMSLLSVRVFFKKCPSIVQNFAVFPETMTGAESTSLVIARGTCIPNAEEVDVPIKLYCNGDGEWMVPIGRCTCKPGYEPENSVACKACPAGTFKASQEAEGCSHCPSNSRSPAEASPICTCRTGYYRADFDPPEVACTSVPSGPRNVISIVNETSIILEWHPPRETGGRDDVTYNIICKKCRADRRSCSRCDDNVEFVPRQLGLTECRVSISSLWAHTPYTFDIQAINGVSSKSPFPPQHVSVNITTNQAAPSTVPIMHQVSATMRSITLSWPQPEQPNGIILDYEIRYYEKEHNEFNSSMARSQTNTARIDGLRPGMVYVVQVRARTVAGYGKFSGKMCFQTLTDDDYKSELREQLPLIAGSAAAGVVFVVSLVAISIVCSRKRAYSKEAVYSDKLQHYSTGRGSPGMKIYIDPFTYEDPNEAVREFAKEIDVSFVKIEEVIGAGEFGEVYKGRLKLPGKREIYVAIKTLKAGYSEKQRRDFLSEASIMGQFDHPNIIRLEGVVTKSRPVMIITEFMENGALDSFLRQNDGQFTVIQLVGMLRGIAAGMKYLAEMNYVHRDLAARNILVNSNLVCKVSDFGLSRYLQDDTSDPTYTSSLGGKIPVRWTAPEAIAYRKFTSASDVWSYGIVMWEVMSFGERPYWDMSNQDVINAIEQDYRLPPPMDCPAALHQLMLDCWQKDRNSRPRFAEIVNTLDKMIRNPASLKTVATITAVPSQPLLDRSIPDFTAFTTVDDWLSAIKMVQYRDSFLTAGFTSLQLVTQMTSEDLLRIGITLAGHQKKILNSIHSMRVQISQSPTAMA

A further test deals with T3, Flt3(h) (Homo sapiens, UniProt P36888).
T3 construct: purchased Millipore KinaseProfiler
T3 sequence (P36888 27-993): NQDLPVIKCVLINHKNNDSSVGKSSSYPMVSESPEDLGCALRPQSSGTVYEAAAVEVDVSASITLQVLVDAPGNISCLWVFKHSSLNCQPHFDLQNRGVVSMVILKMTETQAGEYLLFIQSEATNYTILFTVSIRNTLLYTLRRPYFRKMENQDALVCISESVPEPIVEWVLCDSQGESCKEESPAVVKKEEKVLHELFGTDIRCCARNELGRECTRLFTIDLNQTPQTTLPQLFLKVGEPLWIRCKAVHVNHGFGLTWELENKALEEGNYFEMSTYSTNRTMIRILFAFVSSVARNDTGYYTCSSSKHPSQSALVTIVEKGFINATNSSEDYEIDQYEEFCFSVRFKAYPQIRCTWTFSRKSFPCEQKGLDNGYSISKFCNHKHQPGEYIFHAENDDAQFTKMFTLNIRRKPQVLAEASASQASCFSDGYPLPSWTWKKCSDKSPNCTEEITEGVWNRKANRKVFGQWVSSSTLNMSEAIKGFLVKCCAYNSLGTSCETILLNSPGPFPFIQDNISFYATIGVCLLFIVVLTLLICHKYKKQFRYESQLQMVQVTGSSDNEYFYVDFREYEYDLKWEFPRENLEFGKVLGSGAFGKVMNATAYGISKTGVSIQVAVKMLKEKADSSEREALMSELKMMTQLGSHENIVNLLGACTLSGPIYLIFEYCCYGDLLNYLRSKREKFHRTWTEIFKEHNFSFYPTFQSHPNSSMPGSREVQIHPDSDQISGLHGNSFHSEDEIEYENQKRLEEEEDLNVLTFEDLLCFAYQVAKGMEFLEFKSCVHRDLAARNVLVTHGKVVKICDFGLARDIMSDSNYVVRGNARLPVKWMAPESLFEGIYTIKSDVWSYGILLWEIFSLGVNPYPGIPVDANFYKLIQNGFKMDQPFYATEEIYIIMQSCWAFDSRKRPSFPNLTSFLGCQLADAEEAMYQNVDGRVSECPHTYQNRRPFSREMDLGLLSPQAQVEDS

Another test has as its target T4, PKCη(h) (Homo sapiens, UniProt P24723).
T4 construct: purchased Millipore KinaseProfiler

A further test addresses T5, TAK1(h) (Homo sapiens, UniProt O43318).
T5 construct: purchased Millipore KinaseProfiler
T5 sequence (O43318 1-303 limits assumed): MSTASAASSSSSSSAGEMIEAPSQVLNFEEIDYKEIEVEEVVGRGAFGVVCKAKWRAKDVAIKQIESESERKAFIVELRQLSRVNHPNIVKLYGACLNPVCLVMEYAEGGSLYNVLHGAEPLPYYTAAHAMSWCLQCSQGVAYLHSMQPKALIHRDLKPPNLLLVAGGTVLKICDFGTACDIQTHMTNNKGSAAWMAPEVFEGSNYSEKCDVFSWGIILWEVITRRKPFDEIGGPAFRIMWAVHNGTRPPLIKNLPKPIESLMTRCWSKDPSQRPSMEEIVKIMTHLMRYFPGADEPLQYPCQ

T1 sequence (Q00535 whole entry): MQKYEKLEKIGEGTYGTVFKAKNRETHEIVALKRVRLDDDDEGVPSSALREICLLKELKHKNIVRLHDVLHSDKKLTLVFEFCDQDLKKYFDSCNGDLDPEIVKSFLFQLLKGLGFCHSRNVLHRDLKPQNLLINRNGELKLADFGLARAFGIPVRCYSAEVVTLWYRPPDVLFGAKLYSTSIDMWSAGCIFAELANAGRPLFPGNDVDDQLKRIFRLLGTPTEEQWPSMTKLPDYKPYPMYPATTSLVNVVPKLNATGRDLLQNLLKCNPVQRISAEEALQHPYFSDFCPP
T1 sequence (Q15078 whole entry partner): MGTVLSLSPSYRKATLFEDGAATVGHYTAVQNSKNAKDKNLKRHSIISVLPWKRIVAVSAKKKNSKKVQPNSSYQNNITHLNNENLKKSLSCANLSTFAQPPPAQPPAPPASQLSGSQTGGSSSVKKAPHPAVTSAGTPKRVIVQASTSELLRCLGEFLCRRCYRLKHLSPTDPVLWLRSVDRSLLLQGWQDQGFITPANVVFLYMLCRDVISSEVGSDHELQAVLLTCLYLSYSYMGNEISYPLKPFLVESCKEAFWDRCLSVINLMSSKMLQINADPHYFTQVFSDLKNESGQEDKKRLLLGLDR
T4 sequence (P24723 whole entry): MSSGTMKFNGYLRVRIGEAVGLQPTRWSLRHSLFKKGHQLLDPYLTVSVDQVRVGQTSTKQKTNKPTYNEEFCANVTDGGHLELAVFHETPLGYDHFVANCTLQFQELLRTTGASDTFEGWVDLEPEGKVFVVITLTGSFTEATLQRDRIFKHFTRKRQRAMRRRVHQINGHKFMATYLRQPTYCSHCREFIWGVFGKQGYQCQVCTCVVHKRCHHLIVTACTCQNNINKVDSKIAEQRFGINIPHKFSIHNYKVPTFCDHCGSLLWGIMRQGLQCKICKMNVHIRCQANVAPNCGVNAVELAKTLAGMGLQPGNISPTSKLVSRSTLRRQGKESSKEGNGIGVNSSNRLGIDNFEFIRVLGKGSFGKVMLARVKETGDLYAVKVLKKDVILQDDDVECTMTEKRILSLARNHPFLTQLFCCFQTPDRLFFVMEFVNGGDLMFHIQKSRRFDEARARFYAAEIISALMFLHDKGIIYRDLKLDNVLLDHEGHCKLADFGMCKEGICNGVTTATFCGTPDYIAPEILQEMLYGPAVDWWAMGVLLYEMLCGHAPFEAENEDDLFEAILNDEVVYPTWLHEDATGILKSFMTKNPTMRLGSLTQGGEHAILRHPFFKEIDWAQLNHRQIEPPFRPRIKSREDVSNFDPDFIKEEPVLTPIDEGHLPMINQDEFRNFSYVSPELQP

In the case of `Cn1ncc(Cl)c1-c1cc(C(=O)N[C@H](CN)Cc2cccc(F)c2)sc1Cl` [GSK2110183], the inhibition at 0.5 µM was -10% at CDK5/p35(h); -2% on EphB1(h); -8% at Flt3(h); 78% on PKCη(h); -3% on TAK1(h). Also, the inhibition at 10 µM was 17% against CDK5/p35(h); -4% on EphB1(h); 24% at Flt3(h); 97% against PKCη(h); 1% against TAK1(h).

Take `Cn1ncc(Cl)c1-c1cc(C(=O)N[C@H](CN)Cc2ccc(F)c(F)c2)oc1Cl` [GSK2141795]: the inhibition at 0.5 µM was -14% at CDK5/p35(h) (0.5 µM, read-out: % Inhibition); -5% on EphB1(h) (0.5 µM, read-out: % Inhibition); -12% at Flt3(h) (0.5 µM, read-out: % Inhibition); 86% on PKCη(h) (0.5 µM, read-out: % Inhibition); -10% at TAK1(h) (0.5 µM, read-out: % Inhibition). For the same compound, the inhibition at 10 µM at CDK5/p35(h) (10 µM, read-out: % Inhibition) was 32%; on EphB1(h) (10 µM, read-out: % Inhibition) it was -5%; at Flt3(h) (10 µM, read-out: % Inhibition), 22%; at PKCη(h) (10 µM, read-out: % Inhibition), 99%; at TAK1(h) (10 µM, read-out: % Inhibition) it was -10%.
